Measured values reported in ChEMBL document CHEMBL1201862, “PubChem BioAssay data set” (2004).
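Five concentrations, 48 hours, 96-well plates. The concentration for 50% growth inhibition is given as GI50.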 Active and inactive are the calls of the source. No stated cut-off is given here; in the data, active = GI50 up to about 1.1 µM and inactive = higher.

How the values were obtained:
Experiment in all cases: NCI-60 cell line screen, 48 h
[1] = system: UACC-62
[2] = system: NCI-H23
[3] = system: 786-0
[4] = system: OVCAR-3
[5] = system: OVCAR-8
[6] = system: IGROV-1
[7] = system: COLO 205
[8] = system: HT-29
[9] = system: KM12
[10] = system: SNB-19
[11] = system: RPMI-8226
[12] = system: SK-OV-3
[13] = system: SR
[14] = system: OVCAR-4
[15] = system: M14
[16] = system: SK-MEL-5
[17] = system: MCF7
[18] = system: HOP-62
[19] = system: T47D

| Structure (SMILES) | GI50 [1] | GI50 [2] | GI50 [3] | GI50 [4] | GI50 [5] | GI50 [6] | GI50 [7] | GI50 [8] | GI50 [9] | GI50 [10] | GI50 [11] | GI50 [12] | GI50 [13] | GI50 [14] | GI50 [15] | GI50 [16] | GI50 [17] | GI50 [18] | GI50 [19] |
| --- | --- | --- | --- | --- | --- | --- | --- | --- | --- | --- | --- | --- | --- | --- | --- | --- | --- | --- | --- |
| Cn1c(=O)c2nc(SCCN3CCOCC3)[nH]c2n(C)c1=S | > 100 µM (inactive) | > 100 µM (inactive) | > 100 µM (inactive) | > 100 µM (inactive) | > 100 µM (inactive) | > 100 µM (inactive) | > 100 µM (inactive) | > 100 µM (inactive) | > 100 µM (inactive) | > 100 µM (inactive) | > 100 µM (inactive) | > 100 µM (inactive) | > 100 µM (inactive) | > 100 µM (inactive) | > 100 µM (inactive) | > 100 µM (inactive) | > 100 µM (inactive) | > 100 µM (inactive) | > 100 µM (inactive) |
| CCCCCCc1cc2cc(-c3csc(CC#N)n3)c(=O)oc2cc1O | 14.4 µM (inactive) | 22.1 µM (inactive) | 7.62 µM (inactive) | 11.1 µM (inactive) | 13 µM (inactive) | 29.8 µM (inactive) | > 100 µM (inactive) | > 100 µM (inactive) | 22.5 µM (inactive) | 14.4 µM (inactive) | 32.4 µM (inactive) | 13.3 µM (inactive) | > 56.6 µM (inactive) | 3.45 µM (inactive) | > 100 µM (inactive) | 32.7 µM (inactive) | > 49.4 µM (inactive) | 34.9 µM (inactive) | > 100 µM (inactive) |
| CCOCc1nc2c(OC)c(-c3nc4ccc(N5CCN(C)CC5)cc4[nH]3)cc(OC)c2[nH]1 | 19.6 µM (inactive) | 37.8 µM (inactive) | 31 µM (inactive) | 31.6 µM (inactive) | 80.2 µM (inactive) | 91.6 µM (inactive) | 18.9 µM (inactive) | 27.8 µM (inactive) | 31.6 µM (inactive) | 44.4 µM (inactive) | 40.1 µM (inactive) | 71.4 µM (inactive) | 24.2 µM (inactive) | 71.8 µM (inactive) | 20.2 µM (inactive) | 17.5 µM (inactive) | 47.6 µM (inactive) | 25.6 µM (inactive) | > 100 µM (inactive) |
| COC(=O)N1C[C@@]2(C=CC3(CC2)OCCO3)c2ccccc21 | 65.5 µM (inactive) | 95.7 µM (inactive) | > 100 µM (inactive) | > 100 µM (inactive) | 39.5 µM (inactive) | 49.1 µM (inactive) | > 100 µM (inactive) | 28.2 µM (inactive) | 37.8 µM (inactive) | > 100 µM (inactive) | 61.1 µM (inactive) | > 100 µM (inactive) | 49.7 µM (inactive) | > 100 µM (inactive) | > 100 µM (inactive) | 81.7 µM (inactive) | 96.4 µM (inactive) | > 100 µM (inactive) | > 100 µM (inactive) |
| CCOc1ccccc1/N=C\c1c2ccccc2cc2ccccc12 | 38.5 µM (inactive) | 17.3 µM (inactive) | 18.8 µM (inactive) | 24.7 µM (inactive) | 23.8 µM (inactive) | 22.8 µM (inactive) | 32.3 µM (inactive) | 21.6 µM (inactive) | 15.1 µM (inactive) | 26.4 µM (inactive) | 15.5 µM (inactive) | 22.3 µM (inactive) | 15.2 µM (inactive) | 24.3 µM (inactive) | 20.3 µM (inactive) | 25.6 µM (inactive) | 29.4 µM (inactive) | 26.1 µM (inactive) | 18.9 µM (inactive) |
| O=C(NCCCN1CCN(CCCNC(=O)c2cc(-c3ccccc3)nc3ccccc23)CC1)c1cc(-c2ccccc2)nc2ccccc12 | 15.9 µM (inactive) | 37.3 µM (inactive) | 7.11 µM (inactive) | 27.7 µM (inactive) | 12.2 µM (inactive) | 9.53 µM (inactive) | 8.77 µM (inactive) | 3.63 µM (inactive) | 26.3 µM (inactive) | 14.1 µM (inactive) | 7.8 µM (inactive) | 16.4 µM (inactive) | 3.37 µM (inactive) | 17.8 µM (inactive) | 2.28 µM (inactive) | 2.02 µM (inactive) | 9.53 µM (inactive) | 16.1 µM (inactive) | 8.99 µM (inactive) |
| CCOC(=O)Cn1nnc2ccc(Nc3nc4ccccc4nc3-c3ccccc3)cc21 | > 100 µM (inactive) | > 100 µM (inactive) | 32.3 µM (inactive) | 60.7 µM (inactive) | > 100 µM (inactive) | > 100 µM (inactive) | > 100 µM (inactive) | > 100 µM (inactive) | > 100 µM (inactive) | 70 µM (inactive) | > 100 µM (inactive) | 90.8 µM (inactive) | > 100 µM (inactive) | 68.9 µM (inactive) | 95.5 µM (inactive) | > 100 µM (inactive) | > 100 µM (inactive) | 48 µM (inactive) | > 100 µM (inactive) |
| c1cc2cc(c1)CN1CCNCCN(CCNCC1)Cc1cccc(c1)CN1CCNCCN(CCNCC1)C2 | > 100 µM (inactive) | > 100 µM (inactive) | > 100 µM (inactive) | > 100 µM (inactive) | > 100 µM (inactive) | > 100 µM (inactive) | > 100 µM (inactive) | > 100 µM (inactive) | > 100 µM (inactive) | > 100 µM (inactive) | > 100 µM (inactive) | > 100 µM (inactive) | 78 µM (inactive) | > 100 µM (inactive) | > 100 µM (inactive) | > 100 µM (inactive) | > 100 µM (inactive) | > 100 µM (inactive) | > 100 µM (inactive) |
| CC1(C)CCCCCCC2OC2CCCCCC(C)(C)C1=O (stereo unspecified) | 19 µM (inactive) | 57.7 µM (inactive) | 39.3 µM (inactive) | 34.1 µM (inactive) | 44.4 µM (inactive) | 47.8 µM (inactive) | 14.4 µM (inactive) | 25.9 µM (inactive) | 27.8 µM (inactive) | > 89.3 µM (inactive) | 32.5 µM (inactive) | 69.8 µM (inactive) | 27.5 µM (inactive) | 46.2 µM (inactive) | 32.8 µM (inactive) | 22.3 µM (inactive) | 26.4 µM (inactive) | 49.8 µM (inactive) | 29.9 µM (inactive) |
| CC(C)SC1SCC2C(=O)N(C)C3(CC3C)C(=O)OCC(NC(=O)c3nc4ccccc4cc3O)C(=O)NC(C)C(=O)N(C)C1C(=O)N(C)C1(CC1C)C(=O)OCC(NC(=O)c1nc3ccccc3cc1O)C(=O)NC(C)C(=O)N2C (stereo unspecified) | < 0.0001 µM (active) | < 0.0001 µM (active) | < 0.0001 µM (active) | < 0.0001 µM (active) | < 0.0001 µM (active) | < 0.0001 µM (active) | < 0.0001 µM (active) | < 0.0001 µM (active) | < 0.0001 µM (active) | < 0.0001 µM (active) | < 0.0001 µM (active) | < 0.0001 µM (active) | < 0.0001 µM (active) | < 0.0001 µM (active) | < 0.0001 µM (active) | < 0.0001 µM (active) | < 0.0001 µM (active) | < 0.0001 µM (active) | < 0.0001 µM (active) |
| COC1Cc2c(C)c(OC(C)=O)c3cccnc3c2O1 (stereo unspecified) | 14.7 µM (inactive) | 20.6 µM (inactive) | 18.2 µM (inactive) | 14.5 µM (inactive) | 15.1 µM (inactive) | 13.3 µM (inactive) | 91.8 µM (inactive) | 43.8 µM (inactive) | 36.6 µM (inactive) | > 100 µM (inactive) | 28.6 µM (inactive) | 26.9 µM (inactive) | 15.6 µM (inactive) | 16 µM (inactive) | 14.5 µM (inactive) | 15.3 µM (inactive) | 18.9 µM (inactive) | 25.1 µM (inactive) | 24.1 µM (inactive) |
| CCOC(=O)N1CCN(c2nc(C)n(-c3ccccc3)c(=S)c2C#N)CC1 | > 43.6 µM (inactive) | > 54 µM (inactive) | 42.8 µM (inactive) | > 75 µM (inactive) | 50.2 µM (inactive) | 32.4 µM (inactive) | > 100 µM (inactive) | > 100 µM (inactive) | > 83.8 µM (inactive) | > 78.2 µM (inactive) | > 62.7 µM (inactive) | > 82.2 µM (inactive) | > 100 µM (inactive) | 44.1 µM (inactive) | > 91 µM (inactive) | > 100 µM (inactive) | > 48.9 µM (inactive) | > 75.5 µM (inactive) | > 100 µM (inactive) |
| CC(C)=CCC[C@@H](C)C1=C(O)C(=O)C(C)=C(Nc2ccccc2)C1=O | 13 µM (inactive) | 24.9 µM (inactive) | 25.3 µM (inactive) | 9.2 µM (inactive) | 9.18 µM (inactive) | 17.8 µM (inactive) | 22.6 µM (inactive) | 31.3 µM (inactive) | 22.8 µM (inactive) | 31.4 µM (inactive) | 43.2 µM (inactive) | 27.6 µM (inactive) | 28 µM (inactive) | 19.3 µM (inactive) | 14.9 µM (inactive) | 17.6 µM (inactive) | 24.5 µM (inactive) | 11.3 µM (inactive) | 19.9 µM (inactive) |
| OC1(c2ccc(Cl)cc2)c2ccccc2-c2nc3ccccc3n21 (stereo unspecified) | > 100 µM (inactive) | 89.3 µM (inactive) | 49.2 µM (inactive) | 48.4 µM (inactive) | 82.8 µM (inactive) | 73.5 µM (inactive) | > 100 µM (inactive) | 72.6 µM (inactive) | > 100 µM (inactive) | 51.6 µM (inactive) | 49.3 µM (inactive) | 49 µM (inactive) | 74.5 µM (inactive) | > 100 µM (inactive) | > 100 µM (inactive) | > 100 µM (inactive) | 95.3 µM (inactive) | 37.8 µM (inactive) | > 100 µM (inactive) |
